Test results reported in patent US20130216585A1, “COMPOSITION AND METHODS FOR QUENCHING FREE RADICALS AND MODULATING INFLAMMATION” (FLAVITPURE, INC., priority 2012, published 2013).

Key:
[1] = ORAChydro (Oxygen Radical Absorbance Capacity) assay; assay type: physicochemical
Excerpt: (§1) Dihydroquercetin is a:far more powerful antioxidant than vitamins A, C and E, as indicated by its comparative USDA ranking of the Oxygen Radical Absorbance Capacity (ORAC) and supported by other additional studies such as Cell-based Antioxidant Protection (CAP-e) assay against peroxyl radical, which is used to test whether natural products contain antioxidants capable of entering into and protecting live cells from oxidative damage.
(§2) The majority of HAT-based assays apply a competitive reaction scheme, in which antioxidant and substrate compete for thermally generated peroxyl radicals through the decomposition of azo compounds. ORAC and CAP-e can also be applied as an assays for the inhibition of induced low-density lipoprotein oxidation and other oxygen radical absorbances. […]
(§3) Among all the HAT-based assays, ORAC and CAP-e adopted an AUC (area under curve) technique to quantify antioxidant capacity. […]
(§4) Therefore, the ORAC and CAP-e assays has been broadly applied in academics and the food and supplement industry as the method of choice to quantify antioxidant capacity. […] The ORAChydro value of our dihydroquercetin has been measured at is 3,890 micromole of Trolox equivalent per […] capsule or 28,000 micromole Trolox equivalent per gram. The CAP-e value of our dihydroquercetin has been measured at is 9.9 CAP-e units per gram.

peroxyl radical = assay: Cell-based Antioxidant Protection (CAP-e) assay; settings: per gram
Excerpt: as §1, §2, §3, §4

bacterial mutagenicity = bacterial mutagenicity tests, cited from earlier work
[2] = tested on: 8-hydroxy-2′-deoxyguanosine; settings: Fenton reaction catalyzed by copper; cited from earlier work
[3] = tested on: human lung embryonic fibroblasts (TIG-1); settings: TIG-1 cells; cited from earlier work
[4] = tested on: umbilical vein endothelial (HUVE) cells; settings: cited from earlier work
[5] = clinical feedback, usually females; cited from earlier work

Question: With `O=C1c2c(O)cc(O)cc2O[C@H](c2ccc(O)c(O)c2)[C@H]1O` [Dihydroquercetin] as the compound, how does the ORAChydro value ([1]; per 412.3 mg capsule) read?
Answer: 3,890 micromole of Trolox equivalent per 412.3 mg capsule

Question: And the ORAChydro value ([1]; per gram)?
Answer: 28,000 micromole Trolox equivalent per gram

Question: What about the CAP-e value (peroxyl radical) of the same compound?
Answer: 9.9 CAP-e units per gram

Question: What about the “times less mutagenic than quercetin” value (bacterial mutagenicity; relative to quercetin) of the same compound?
Answer: 400 times

Question: And the minimum mutagenic dose (bacterial mutagenicity)?
Answer: 1626 nmol

Question: And the pro-oxidant activity [2]?
Answer: did not present pro-oxidant activity

Question: What about the 50% lethal concentration [3] of the same compound?
Answer: > 300 µmol

Question: And the 50% lethal concentration [4]?
Answer: > 200 µmol

Question: Which minimum mutagenic dose (bacterial mutagenicity) does the source give for `O=c1c(O)c(-c2ccc(O)c(O)c2)oc2cc(O)cc(O)c12` [quercetin, reference compound] here?
Answer: 4 nml

Question: Which “occasional reaction of bloating and flatulence, share of individuals” value [5] does the source give for Larch Arabinogalactan here?
Answer: less than three percent

Question: With catechin [reference compound] as the compound, how does the pro-oxidant activity [2] read?
Answer: did not present pro-oxidant activity
